Entries after “also recorded” stand apart in the source; their conditions may differ.
Key:
C26 cells = assay: Delivery of 58-mer dsDNA Conjugate into C26 cells, ELISA reader (Example 8); assay type: cell-based, murine; details: Cy3 58-mer dsDNA, two MNMs
Procedure: (§1) 3T3 cells and C26 cells were grown and prepared as described in Example 5 above. Cells were incubated for 1, 2, and 24 hours with a Conjugate comprising a 58-mer double-stranded (ds)DNA, linked to Cy3 fluorophore, and lined to two Apo-Si—C4 moieties. Two concentrations of the Conjugate were tested: 40 nM and 100 nM. Analysis comprised fluorescent microscopy and signal quantification by ELISA reader, as described in Example 5 above. An identical 58-mer dsDNA, not linked to E moieties, served as Control.

3T3 cells = assay: Delivery of 58-mer dsDNA Conjugate into 3T3 cells, ELISA reader (Example 8); assay type: cell-based, murine; details: Cy3 58-mer dsDNA, two MNMs
Procedure: as §1

EGFP gene = EGFP gene silencing in primary culture of hepatocytes of transgenic mice; assay type: cell-based, mouse; details: EGFP dsRNA, two MNMs, complex with Histone H2A (2:1 Histone/RNA); 40 nM; 72 hours
Procedure: Double-stranded RNA sequence, as specified in Example 7 was attached to two MNMs according to Formula (VIIa), wherein a=2, and k=1, designated Apo-Si—C4. The conjugate (40 nM) was then incubated with the histone 2A protein (Histone H2A, Molecular Weight 14 kDa; New England Biolabs, Inc.) for 30 minutes (at a 2:1 Histone/RNA ratio) for generation of RNA+MNM+protein complex. The complex was then incubated with cells of primary culture of hepatocytes of transgenic mice, expressing the EGFP gene. After 72 hours, fluorescence of the EGFP signal was quantified utilizing an ELISA reader, as described in Example 7. […] As evident from the results, this complex was capable of effectively crossing the cell membranes, and moreover, exerting a beneficial biological performance in gene silencing. By comparison to the performance of the Control complex, which was devoid of MNMs, the observed results can be attributed solely to the MNMs of the invention.

3T3-EGFP cells [1] = assay: Uptake of Conjugate into 3T3-EGFP cells with dipole potential modulators phloretin or 6-KC; assay type: cell-based, mouse
From the text: Phloretin is an inhibitor of the membrane dipole potential and the related IMEF, while 6-keto-cholestanol (6-KC) is a potent enhancer of the IMEF). Therefore, a potential relationship between the effects of the dipole potential modulators phloretin or 6-KC, and the uptake level of the above Conjugate of the Invention (comprising the Apo-Si—C4 MNM, linked to dsDNA, of the sequence: Sense:/5′-MNM/TT/iCy3/[…] (SEQ ID. No. 9); Anti-sense:/5′-MNM/[…] (SEQ ID. No. 10); wherein Cy3 is a red fluorophore); was examined.
One day before the experiment, 3T3-EGFP cells in the exponential growth phase were plated in 6-well plates, at a density of 5×10^5 cells/well, with DMEM complete medium, without antibiotics. Cells were incubated with phloretin 750 μM at 37° C., or 6-KC 100 μM at 37° C., for one hour. The 6-KC was then washed away, while the phloretin was kept in the medium. The Conjugate as described above was diluted in 500 μl/well of Opti-Mem, and added to the above cells, at a final concentration of 40 nM for two hours. Delivery of the Conjugate was evaluated at 2 hours post transfection. At that time point, cells were trypsinized, supplemented with Hank's Buffered Salt Solution (HBSS buffer; Biological Industries, Israel) and centrifuged for 5 min at 1200 rpm. Cells were then re-suspended with Hank's Buffered Salt Solution, and subjected to analysis using FACSAria III Cell Sorter (BD Biosciences, San Jose, Calif., USA), utilizing the Cell Diva software. For each sample, a total of 10^4 events were collected.

3T3-EGFP cells [2] = assay: Structure/function analysis of polarity: uptake into 3T3-EGFP cells, FACS; assay type: cell-based, mouse; details: Cy3 58-mer DNA conjugate, 40 nM
Procedure: For this purpose, two analogous Conjugates were constructed and evaluated: • (i). A Conjugate of dsDNA, linked to E and E′, each has the structure as set forth in Formula (VIIa); designated Apo-Si—C4: […]
Both these MNM moieties were linked to a 58-mer DNA oligonucleotide, labeled with the Cy3-fluorophore, and were subjected to FACS analysis.
One day before the experiment, 3T3-EGFP cells in the exponential growth phase were plated in 6-well plates, at a density of 0.2-0.5×10^5 cells/well, with DMEM complete medium, without antibiotics. Each of the Cy3-labeled oligonucleotides (with or without the MNMs) was diluted in 500 μl/well of Opti-Mem, and added to the cells, at a final concentration of 40 nM. Delivery of the Conjugates was evaluated at 2-24 hours of incubation. Following the incubation period, cells were trypsinized, supplemented with Hank's Buffered Salt Solution (HBSS buffer; Biological Industries, Israel) and centrifuged for 5 min at 1100 rpm. […] Detection and quantification of the Cy3-positive cell population were performed using measurements of the fluorescence intensity in the cells incubated with the Apo-Si-4C Conjugate, relative to that of the cells incubated with the Control A Conjugate.

[3] = Stability under oligonucleotide de-protection conditions, HPLC/MS; assay type: physicochemical; details: ammonium hydroxide at 65° C., samples at 15 minutes, 1 and 2 hours
From the text: Synthesis of the Conjugates of the Invention customarily involves protecting the nucleobases of the synthesized oligonucleotides by chemical groups. For example, adenine is often protected by a benzoyl protecting group, guanine by isobutyryl, and cytosine by acetyl. These protecting groups should be removed at the end of synthesis, in order to obtain a functional oligonucleotide. This removal is customarily performed in strong basic conditions. For example, the standard protocol of IDT (Iowa, USA) for removal of the protecting groups during synthesis of oligonucleotides comprises incubation with ammonium hydroxide at 65° C. degrees, for 2 hours. In order to evaluate whether the Compound of the Invention can sustain de-protection in these harsh conditions, a model system was constructed, based on the following Model Compound A, having the following structure:
Two mg of this compound were incubated in the above standard conditions used for deprotection. Samples were drawn after 15 minutes, 1 and 2 hours incubation, and evaluated by HPLC/MS, exploring and analyzing the formation of new peaks. […] Therefore, this analogue of the compound of the Invention manifested stability in these relatively harsh basic conditions.

Row | SMILES | Ratio of signal intensity of the Conjugate versus control dsDNA devoid of MNMs (C26 cells; 40 nM) | Ratio of signal intensity of the Conjugate versus control dsDNA devoid of MNMs (C26 cells; 100 nM) | Ratio of signal intensity of the Conjugate versus control dsDNA devoid of MNMs (3T3 cells; 40 nM) | Ratio of signal intensity of the Conjugate versus control dsDNA devoid of MNMs (3T3 cells; 100 nM) | Reduction of the EGFP signal vs control complex without MNMs (EGFP gene) | Uptake by cells after 6-keto-cholestanol (Cy3 fluorescence microscopy) (3T3-EGFP cells [1]; 40 nM, 2 hours, pre-incubation with 6-KC 100 μM for one hour) | Cells labeled (FACS) (3T3-EGFP cells [1]; Cy3 dsDNA, MNMs, 40 nM, 2 hours, no modulator) | Cells manifesting binding of the Conjugate (FACS) (3T3-EGFP cells [1]; Cy3 dsDNA, MNMs, 40 nM, 2 hours, phloretin 750 μM) | Uptake by cells after phloretin (flow cytometry) (3T3-EGFP cells [1]; pre-incubation with phloretin) | Cy3 fluorescent signal in cells (FACS) (3T3-EGFP cells [2]; 24 hours of incubation) | Cy3 fluorescent signal in cells (FACS) (3T3-EGFP cells [2]; two hours of incubation) | Degradation under de-protection conditions [3]
1 | [2H]CCCCOc1ccc2c(c1)CCC1C2CCC2(C)C(OCCCOC(C(F)(F)F)(C(F)(F)F)C(F)(F)F)CCC12 (stereo not drawn) [Apo-Si—C4] | 80 fold | 72 fold | 104 fold | 101 fold | 76% | markedly higher uptake; also recorded: markedly increased uptake | 68% | 1.5% | marked reduction in the uptake | further augmented | strong Cy-3 fluorescent signal | –
2 | CCCCCCN(C(=O)Oc1ccccc1)[C@H]1CCSSC1 [Compound A] | – | – | – | – | – | – | – | – | – | – | – | no signs of degradation
